Data set [1] is described as follows: Pharmacokinetic evaluation of compounds in dogs. The data set is classed as in vivo. Conditions: dog, plasma, beagle dogs. The method, then:
Experimental purpose: To test the in vivo pharmacokinetic data of compounds in beagle dogs.
The compound was mixed with the solvent 5% DMSO/5% Solutol/90% H2O, vortexed and sonicated to prepare a 0.5 mg/mL clear solution. The beagle dogs were administered the candidate compound solution intravenously. Whole blood was collected for a certain period of time, and plasma was prepared. The drug concentration was analyzed by LC-MS/MS method, and pharmacokinetic parameters were calculated.
The compound was mixed with the solvent 5% DMSO/5% Solutol/90% H2O, vortexed and sonicated to prepare a 0.5 mg/mL clear solution. The beagle dogs were administered candidate compound solutions orally. Whole blood was collected for a certain period of time, and plasma was prepared. The drug concentration was analyzed by LC- MS/MS method, and pharmacokinetic parameters were calculated.

Data set [2] can be described thus: Hepatocyte metabolic stability experiment (HMS), M. Conditions: mouse, M hepatocytes, read-out: HMS CLint(liver). The data set is classed as in vitro ADME. The method, then:
(§1) Experimental operations: 198 μL of hepatocyte suspension (0.51×10^6 cells/mL) was added to the preheated incubation plate, and 198 μL of culture medium without hepatocytes was added to T0-MC and T120-MC incubation plates for the culture medium control group, and all incubation plates were pre-incubated for 10 minutes in a 37° C. incubator. Then 2 μL of the working solution of the test and control compounds were added and mixed well, and the incubation plate was immediately put into the plate shaker in the incubator, the rotation speed was adjusted to about 650 rpm, and the timer and the reaction were started. 2 duplicate samples for each compound were prepared at each time point. Incubation conditions: 37° C., saturated humidity, and containing 5% CO2. In the test system, the final concentration of the test compound was 1 μM, the final concentration of the control compound was 3 μM, the final concentration of hepatocytes was 0.5×10^6 cells/mL, and the final concentration of the total organic solvent was 0.96%, of which the final concentration of DMSO was 0.1%. […] All samples were mixed and analyzed by LC-MS/MS method. […]

Data set [3] is described as follows: Pharmacokinetic evaluation of compounds in rats. In kind it is in vivo. Conditions: rat, plasma, SD rats. As for the experimental part: Experimental purpose: To test the in vivo pharmacokinetic data of compounds in SD rats.
The compound was mixed with the solvent 5% DMSO/5% Solutol/90% H2O, vortexed and sonicated to prepare a 0.5 mg/mL clear solution. The rats were administered the candidate compound solution intravenously. Whole blood was collected for a certain period of time, and plasma was prepared. The drug concentration was analyzed by LC-MS/MS method, and pharmacokinetic parameters were calculated.
The compound was mixed with the solvent 5% DMSO/5% Solutol/90% H2O, vortexed and sonicated to prepare a 2 mg/mL clear solution. The rats were administered candidate compound solutions orally. Whole blood was collected for a certain period of time, and plasma was prepared. The drug concentration was analyzed by LC-MS/MS method, and pharmacokinetic parameters were calculated.

The test system of the next data set is plasma proteins. Briefly: Plasma protein binding experiment (PPB), M. In kind it is in vitro ADME, mouse. Conditions: 2 μM, 4 hours dialysis. As for the experimental part: Experimental operation: 995 μL of blank plasma of each genus was taken, 5 μL of working solution of test compound (400 μM) or working solution of warfarin (400 μM) was added, so that the final concentrations of the test compound and warfarin in the plasma sample was 2 μM. The sample was mixed thoroughly. The final concentration of the organic phase DMSO was 0.5%; 50 μL of plasma samples of the test compound and warfarin were pipetted into the sample receiving plate (three parallels), and the corresponding volume of the corresponding blank plasma or buffer was immediately added so that the final volume of each sample well was 100 μL, with a volume ratio of 1:1 for plasma: dialysis buffer, and then 500 μL of stop solution was added to these samples, and these samples would be used as a T0 sample for the recovery and stability determination. […] All samples were analyzed by LC/MS/MS after protein precipitation, and the protein binding rate and recovery rate were calculated by the formula: % Unbound=100*F/T, % Bound=100−% Unbound, % Recovery 100*(F+T) T0 (where F was the peak area ratio of the compound in the dialysate after 4 hours of dialysis; T was the peak area ratio of the compound in the plasma after 4 hours of dialysis, and T0 was the peak area ratio of the compound in the plasma sample at zero time).

Data set [4] can be described thus: Hepatocyte metabolic stability experiment (HMS), R. The data set is classed as in vitro ADME. Conditions: rat, R hepatocytes, read-out: HMS CLint(liver). As for the experimental part:
as §1

Setting [5] is: IV, 0.49 mg/kg (002), 0.5 mg/kg (003B).
Where [6] appears, read: IV, 1.0 mg/kg (002), 0.85 mg/kg (003B).
The mark [7] stands for this setting: PO, 9.2 mg/kg (002), 8.4 mg/kg (003B).

In data set [1] (setting [5]), `Nc1nccc2c1n(-c1ccc(Oc3ccccc3)cc1)c(=O)n2[C@@H]1CCCN(C(=O)/C=C/CF)C1` [Compound 002] registered an AUC(0-inf) of 0.684 µM·h, a C0 of 1710 nM, a Vd of 1.5 L/kg and a clearance of 25.6 mL/min/kg. The compound further gave a half-life in data set [1] (setting [5]) of 58.2 min. In data set [1] (PO, 2.0 mg/kg), the AUC(0-inf) was 2.25 µM·h, the Cmax was found to be 1140 nM, the Tmax came out at 30 min and the bioavailability was found to be 82.2%. Also, the half-life in data set [1] (PO, 2.0 mg/kg) is 42.6 min. For the same compound, the CLint scaled at 1 μM in data set [2] came out at 702 mL/min/kg. Further, in data set [3] (setting [6]), the AUC(0-inf) was determined as 1.32 µM·h, the C0 amounted to 3520 nM, the Vd was 0.7 L/kg and the clearance is 26 mL/min/kg. In data set [3] (setting [6]), this compound had a half-life of 24 min. In addition, in data set [3] (setting [7]), the AUC(0-inf) came out at 2.58 µM·h, the Cmax came to 1800 nM, the Tmax worked out at 22.8 min and the bioavailability was determined as 18.1%. The half-life in data set [3] (setting [7]) was 107 min. Besides, the “Unbound PPB” value in the data set on plasma proteins came out at 4.5%. In addition, the CLint scaled at 1 μM in data set [4] came out at 171 mL/min/kg.

The values are drawn from patent US20240217973A1, “IMIDAZOPYRIDINE COMPOUNDS AND USE THEREOF” (MEDSHINE DISCOVERY INC., priority 2021, published 2024).
